Laboratory results taken from article PMC9743095 (Journal of Medicinal Chemistry, 2022).
Like-named read-outs stand apart in the source and are kept apart here.

How the values were obtained:
BxPC-3 = experiment: cells; format: cell-based; conditions: for MI%: BxPC-3, maximum inhibitory effect over concentration range; for CC50: Homo sapiens, BXPC-3, 72 h, read-out: LC50
Experimental: (§1) The assay was contracted and carried out by WuXi AppTec (Shanghai) Co., Ltd. The tumor cell lines CCRF-CEM, HL-60, KG-1, MOLT-4, K562, MV4-11, THP-1, HEL92.1.7, NCI-H929, RPMI-8226, Jurkat, Z138, RL, HS445, HepG2, MCF-7, Bx-PC-3, HT29, MIA PaCa-2, and SW620 were seeded at cell densities of […] 10^3 cells/well in a 96-well plate the day before drug incubation. Then, the plates were incubated for 72 h with the different concentrations of compound to be tested. After the incubation period, 50 μL of MTS was added and the tumor cells were incubated for 4 h at 37 °C. The data were read and collected by a Spectra Max 340 absorbance microplate reader. The compounds were tested in duplicate with nine serial concentrations (3.16-fold titrations with 198 μM as the highest concentration), and the data were analyzed by XLfit software.

CCRF-CEM = experiment: cells; format: cell-based; conditions: Homo sapiens, 72 h; for Emax: read-out: MI%; for CC50: read-out: LC50
Experimental: as §1

HEL92.1.7 = experiment: cells; format: cell-based; conditions: for MI%: HEL92.1.7, maximum inhibitory effect over concentration range; for CC50: Homo sapiens, HEL 92.1.7, 72 h, read-out: LC50
Experimental: as §1

HL-60 = experiment: cells; format: cell-based; conditions: Homo sapiens; for Emax: read-out: MI%; for CC50: read-out: LC50
Experimental: as §1

HS445 = experiment: cells; format: cell-based; conditions: for MI%: HS445, maximum inhibitory effect over concentration range; for CC50: Homo sapiens, Hs 445, 72 h, read-out: LC50
Experimental: as §1

HT29 = experiment: cells; format: cell-based; conditions: for MI%: HT29, maximum inhibitory effect over concentration range; for CC50: Homo sapiens, HT-29, 72 h, read-out: lC50
Experimental: as §1

HepG2 = experiment: cells; format: cell-based; conditions: Homo sapiens; for Emax: read-out: MI%; for CC50: read-out: LC50
Experimental: as §1

Jurkat = experiment: cells; format: cell-based; conditions: Jurkat; for CC50: Homo sapiens, 72 h, read-out: LC50; for MI%: maximum inhibitory effect over concentration range
Experimental: as §1

K562 = experiment: cells; format: cell-based; conditions: Homo sapiens; for Emax: read-out: MI%; for CC50: read-out: LC50
Experimental: as §1

KG-1 = experiment: cells; format: cell-based; conditions: Homo sapiens, KG-1, 72 h, read-out: LC50
Experimental: as §1

MCF-7 = experiment: cells; format: cell-based; conditions: Homo sapiens, MCF7, 72 h; for CC50: read-out: LC50; for Emax: read-out: MI%
Experimental: as §1

MIA PaCa-2 = experiment: cells; format: cell-based; conditions: for CC50: Homo sapiens, MIA PaCa-2, 72 h, read-out: LC50; for MI%: MIA PaCa-2, maximum inhibitory effect over concentration range
Experimental: as §1

MOLT-4 = experiment: cells; format: cell-based; conditions: Homo sapiens; for Emax: read-out: MI%; for CC50: read-out: LC50
Experimental: as §1

MV4-11 = experiment: cells; format: cell-based; conditions: for CC50: Homo sapiens, MV4-11, 72 h, read-out: LC50; for MI%: MV4-11, maximum inhibitory effect over concentration range
Experimental: as §1

NCI-H929 = experiment: cells; format: cell-based; conditions: for CC50: Homo sapiens, NCI-H929, 72 h, read-out: LC50; for MI%: NCI-H929, maximum inhibitory effect over concentration range
Experimental: as §1

RL = experiment: cells; format: cell-based; conditions: for CC50: Homo sapiens, 72 h, read-out: LC50; for MI%: maximum inhibitory effect over concentration range
Experimental: as §1

RPMI-8226 = experiment: cells; format: cell-based; conditions: for CC50: Homo sapiens, RPMI-8226, 72 h, read-out: LC50; for MI%: RPMI-8226, maximum inhibitory effect over concentration range
Experimental: as §1

SW620 = experiment: cells; format: cell-based; conditions: for CC50: Homo sapiens, SW-620, 72 h, read-out: LC50; for MI%: SW620, maximum inhibitory effect over concentration range
Experimental: as §1

THP-1 = experiment: cells; format: cell-based; conditions: for CC50: Homo sapiens, THP-1, 72 h, read-out: LC50; for MI%: THP-1, maximum inhibitory effect over concentration range
Experimental: as §1

Z138 = experiment: cells; format: cell-based
Experimental: as §1

[1] = cited from earlier work

SMILES | MI% (BxPC-3) | CC50 (BxPC-3) | CC50 (CCRF-CEM) | MI% (HEL92.1.7) | CC50 (HEL92.1.7) | CC50 (HL-60; HL-60, 72 h) | MI% (HS445) | CC50 (HS445) | MI% (HT29) | CC50 (HT29) | CC50 (Jurkat) | MI% (Jurkat) | CC50 (K562; K562, 72 h) | CC50 (KG-1) | CC50 (MCF-7) | CC50 (MIA PaCa-2) | MI% (MIA PaCa-2) | CC50 (MOLT-4; MOLT-4, 72 h) | CC50 (MV4-11) | MI% (MV4-11) | also measured
CC(=O)O[C@H]1C(=O)[C@@]2(C)[C@H]([C@H](OC(=O)c3ccccc3)[C@]3(O)C[C@H](OC(=O)[C@H](O)[C@@H](NC(=O)c4ccccc4)c4ccccc4)C(C)=C1C3(C)C)[C@]1(OC(C)=O)CO[C@@H]1C[C@@H]2O [PTX, paclitaxel, reference compound] | 42% | > 500 nM | 3 nM | 83% | 20 nM | 4 nM | 74% | 10 nM | 75% | 4 nM | 5 nM | 97% | 8 nM | 70 nM | 3 nM | 2 nM | 87% | 2 nM | 10 nM | 99% | Emax (CCRF-CEM; maximum inhibitory effect over concentration range): 95%; Emax (HL-60; 72 h, HL-60, maximum inhibitory effect over concentration range): 96%; Emax (HepG2; 72 h, HepG2, maximum inhibitory effect over concentration range): 54%; Emax (K562; 72 h, K562, maximum inhibitory effect over concentration range): 94%; Emax (MCF-7; MCF-7, maximum inhibitory effect over concentration range): 79%; Emax (MOLT-4; 72 h, MOLT-4, maximum inhibitory effect over concentration range): 97%; CC50 (NCI-H929): 3 nM; MI% (NCI-H929): 82%; CC50 (RL): 3 nM; MI% (RL): 83%; CC50 (RPMI-8226): 3 nM; MI% (RPMI-8226): 91%; CC50 (SW620): 20 nM; MI% (SW620): 96%; CC50 (THP-1): 30 nM; MI% (THP-1): 72%; CC50 (Z138; Homo sapiens, Z-138, 72 h, read-out: LC50): 2 nM; MI% (Z138; Z138, maximum inhibitory effect over concentration range): 99%
C[C@H](N[P@@](=O)(OC[C@@H]1C[C@@H](O)[C@H](n2cnc3c(N)ncnc32)O1)Oc1ccccc1)C(=O)OCc1ccccc1 [Rp-7a] | 71% | 74000 nM | 1860 nM | 98% | 11000 nM | 8700 nM | 99% | 42000 nM | 97% | 16000 nM | 2820 nM | 97% | 2600 nM | 14000 nM | 2940 nM | 14000 nM | 96% | 570 nM | 980 nM | 100% | Emax (CCRF-CEM): 97%; Emax (HL-60; HL-60, 72 h): 100%; CC50 (HepG2; HepG2, 72 h): 32000 nM; Emax (HepG2; HepG2, 72 h): 78%; Emax (K562; K562, 72 h): 95%; Emax (MCF-7): 97%; Emax (MOLT-4; MOLT-4, 72 h): 98%; CC50 (NCI-H929): 19000 nM; MI% (NCI-H929): 97%; CC50 (RL): 4000 nM; MI% (RL): 96.8%; CC50 (RPMI-8226): 25000 nM; MI% (RPMI-8226): 90.8%; CC50 (SW620): 29000 nM; MI% (SW620): 82%; CC50 (THP-1): 35000 nM; MI% (THP-1): 91%
C[C@H](N[P@](=O)(OC[C@@H]1C[C@@H](O)[C@H](n2cnc3c(N)ncnc32)O1)Oc1ccccc1)C(=O)OCc1ccccc1 [Sp-7a] | 73% | 99000 nM | 2040 nM | 100% | 11000 nM | 11000 nM | 75% | 67000 nM | 95% | 25000 nM | 2290 nM | 90% | 3000 nM | 18000 nM | 5870 nM | 18000 nM | 94% | 430 nM | 1030 nM | 100% | Emax (CCRF-CEM): 97%; Emax (HL-60; HL-60, 72 h): 92%; CC50 (HepG2; HepG2, 72 h): 57000 nM; Emax (HepG2; HepG2, 72 h): 73%; Emax (K562; K562, 72 h): 96%; Emax (MCF-7): 94%; Emax (MOLT-4; MOLT-4, 72 h): 98%; CC50 (NCI-H929): 16000 nM; MI% (NCI-H929): 94%; CC50 (RL): 2640 nM; MI% (RL): 92.6%; CC50 (RPMI-8226): 19000 nM; MI% (RPMI-8226): 86.8%; CC50 (SW620): 35000 nM; MI% (SW620): 87%; CC50 (THP-1): 66000 nM; MI% (THP-1): 69%
CC(C)OC(=O)[C@H](C)N[P@](=O)(CO[C@H](C)Cn1cnc2c(N)ncnc21)Oc1ccccc1 [TAF, Tenofovir Alafenamide] |  |  |  |  |  |  |  |  |  |  |  |  |  |  |  |  |  |  |  |  | Sp isomer fold more active than the Rp isomer [1]: 10 fold
CC(C)OC(=O)[C@H](C)N[P@](=O)(OC[C@H]1O[C@@H](n2ccc(=O)[nH]c2=O)[C@](C)(F)[C@@H]1O)Oc1ccccc1 [sofosbuvir] |  |  |  |  |  |  |  |  |  |  |  |  |  |  |  |  |  |  |  |  | Sp isomer fold more active than the Rp isomer [1]: 18 fold
